In patent US20100160391A1, “Substituted Aminopyridines as Fluorescent Reporters for Amide Hydrolases” (priority 2006, published 2010):
Read-outs that look alike come from different tables or passages of the source. Marks after values point to notes of the source that are not given here. Each block holds one compound with its values, some of them ahead of it.

Tests used:
[1] = Comparison of aqueous solubility of substrates (absorbance at 800 nm); assay type: physicochemical; settings: 0.1 M phosphate buffer (pH 8.0), 1% ethanol, 37° C.
Experimental: Comparison of aqueous solubility of substrates. The aqueous solubility of the aminopyridine derivatives (e.g., 13, 14) and the 7-aminocoumarin derivative (e.g., 15) was determined in clear 96-well styrene flat-bottom microtiter plates with a Spectra Max M2 spectrophotometer. Different concentrations of the substrates (13, 14 and 15; final concentration: 0.39, 0.78, 1.56, 3.13, 6.25, 12.5, 25, 50, 100, or 200 μM) in 200 μl 0.1 M sodium phosphate buffer (1% ethanol; pH 8.0) were used and the absorbance was recorded at a wavelength of 800 nm at 37° C. The measurements were performed in three replicates for each concentration.

[2] = molecular target: T1, microsomal fatty acid amide hydrolase (FAAH) (Homo sapiens, UniProt O00519); assay: Lowest detection limits of microsomal FAAH toward colorimetric and fluorescent substrates; assay type: biochemical
T1 construct: made in house; host or cells: Trichoplusia ni High Five cells infected with recombinant baculovirus Ac-hFAAH; microsomal fraction
T1 sequence (O00519 1-579): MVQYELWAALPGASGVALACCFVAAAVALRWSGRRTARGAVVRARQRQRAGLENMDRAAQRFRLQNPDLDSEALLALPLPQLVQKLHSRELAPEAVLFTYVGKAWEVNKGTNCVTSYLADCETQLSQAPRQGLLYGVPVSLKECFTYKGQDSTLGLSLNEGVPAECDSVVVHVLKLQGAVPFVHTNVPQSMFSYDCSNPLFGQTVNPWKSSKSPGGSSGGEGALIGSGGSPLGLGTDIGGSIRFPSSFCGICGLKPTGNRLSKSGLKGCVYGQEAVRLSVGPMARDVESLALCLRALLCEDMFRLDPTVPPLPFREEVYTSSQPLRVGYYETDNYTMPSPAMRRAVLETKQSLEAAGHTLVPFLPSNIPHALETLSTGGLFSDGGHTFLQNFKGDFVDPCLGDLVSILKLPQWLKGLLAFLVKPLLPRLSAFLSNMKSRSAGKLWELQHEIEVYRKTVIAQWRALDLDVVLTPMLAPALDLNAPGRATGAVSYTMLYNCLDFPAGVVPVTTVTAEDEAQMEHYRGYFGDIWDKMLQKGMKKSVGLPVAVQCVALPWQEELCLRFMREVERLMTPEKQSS
Experimental: (§1) Preparation of recombinant human FAAH. Transgenic expression of the human FAAH in a baculovirus system was performed by following the method described in Nishi et al., Arch. Biochem. Biophys., 445:115-123 (2006). The cDNA encoding human FAAH (GenBank Accession No. NM_001441) was amplified by PCR using a human liver cDNA library (Invitrogen; Carlsbad, Calif.) as a template. The primer pair was 5′-[…]-3′ and 5′-[…]-3′. BglII and EcoRI endonuclease sites (underlined) were incorporated just upstream of the start codon and downstream of the stop codon of the coding sequence of FAAH, respectively. The PCR products were cloned into a pCR2.1 vector (Invitrogen) and the nucleotide sequence was verified by DNA sequencing. The cDNA fragments were then excised and directionally ligated to the BglII and EcoRI sites of the baculovirus transfer vector pAcUW21 (Lopez-Ferber et al., Baculovirus transfer vectors, in “Baculovirus Expression Protocols,” Richardson (Ed.), pp 25-63, Humana Press, Totowa, N.J., 1995). Recombinant baculoviruses harboring the human FAAH gene, Ac-hFAAH, were generated by co-transfection of Spodoptera frugiperda-derived Sf21 cells with the recombinant transfer vector plasmid and Bsu36I-cleaved BacPAK6 viral DNA (Clontech Laboratories; Mountain View, Calif.) as described in O'Reilly et al., Baculovirus Expression Vectors: A Laboratory Manual, Oxford University Press, New York, 1992. Trichoplusia ni-derived High Five cells (1×10^6 cells/ml) were inoculated with a high titer of Ac-hFAAH. At 72 hours post-infection, the infected cells were harvested by centrifugation at 2,000×g for 20 min at 4° C. and suspended in 50 mM Tris-HCl (pH 8.0) containing 150 mM NaCl, 1 mM EDTA, 1 μM pepstatin, 100 μM leupeptin, and 0.1 mg/ml aprotinin. The cell suspension was then homogenized using a Polytron homogenizer and centrifuged at 10,000×g for 20 min at 4° C. The microsomal fraction was collected by ultracentrifugation of the supernatant at 100,000×g for 60 min at 4° C. The pellet was resuspended in 20 mM Tris-HCl (pH 8.0) containing 10% (w/v) glycerol and 1% (w/v) Triton-X 100 and stored at −80° C. until use.
(§2) Comparison of the lowest detection limits of protein concentration of FAAH toward colorimetric and fluorescent substrates. In general, all assays were performed in 96-well styrene flat-bottom microtiter plates with a Spectra Max M2 spectrophotometer at 37° C. for […]. The total volume of each well was 201 μl consisting of 0.1 M sodium phosphate buffer (pH 8.0) (190 μl) containing 1% glycerol and 0.1% Triton-X 100, stock or diluted protein solution (10 μl), and the substrate solution (1 μl) in ethanol (final concentration 200 μM for 10, 11, 13 or 14) or in DMSO (final concentration 25 μM for 12, 15, or 16; 50 μM for 17). The lowest detection limits of microsomal fatty acid amide hydrolase (FAAH) by substrates were determined by the fact that the signal at 10 min after kinetic measurements are equal to or over three times the noise or basal line at 0 min. Colorimetric substrate (16) assays were performed in clear 96-well microtititer plates using an absorbance wavelength at 382 nm. The fluorescent substrates containing 5-amino-2-methoxypyridine (e.g., 10, 13) were measured at an excitation wavelength (302 nm), emission wavelength (396 nm), and auto cutoff wavelength (325 nm). Similarly, the fluorescent substrates containing 5-amino-2-methoxy-6-methylpyridine (e.g., 11, 14, and 17) were measured at an excitation wavelength (304 nm), emission wavelength (392 nm), and an auto cutoff wavelength of 325 nm. In addition, an excitation wavelength (366 nm), emission wavelength (496 nm), and auto cutoff wavelength (495 nm) were used for the substrates (e.g., 12 and 15) containing 7-amino-4-trifluoromethyl coumarin.

[3] = molecular target: T2, human FAAH, microsomes from FAAH cells (Homo sapiens, UniProt O00519); assay: Specific activity, microsomes from FAAH cells; assay type: biochemical
T2 construct: made in house; host or cells: Trichoplusia ni High Five cells infected with recombinant baculovirus Ac-hFAAH; microsomal fraction
T2 sequence (O00519 1-579): T1 sequence (O00519 1-579)
Experimental: as §1, §2
Specific activity determination. The assays for specific activities were performed as described above for the sensitivity assay. […]

[4] = tested on: amidases, human liver S9; assay: Specific activity, human liver S9; assay type: biochemical; settings: pH 8.0, 37° C.; NM = not measurable at the same protein concentration as other substrates
Experimental: as §2, with “Similarly, the fluorescent substrates containing 5-amino-2-methoxy-6-methylpyridine (e.g., 11, 14, and 17) were measured at an excitation wavelength (304 nm), emission wavelength (392 nm), and an auto cutoff wavelength of 325 nm. In addition, an excitation wavelength (366 nm), emission wavelength (496 nm), and auto cutoff wavelength (495 nm) were used for the substrates (e.g., 12 and 15) containing 7-amino-4-trifluoromethyl coumarin.” left out

[5] = tested on: amidases, human liver microsomes; assay: Specific activity, human liver microsomes; assay type: biochemical; settings: for Specific activity, Human liver microsomes: pH 8.0, 37° C., NM = not measurable at the same protein concentration as other substrates
Experimental: as §2
Specific activity determination. The assays for specific activities were performed as described above for the sensitivity assay. The specific activity presented is based on the following: 1) the signal after a 10 min enzymatic reaction was at least 3 fold the baseline signal at 0 min, and 2) the amount of hydrolyzed substrate during a 10 min period was less than 10% of the total amount of the substrate added. To correct for protein-induced fluorescence quenching, a standard curve of 5-amino-2-methoxypyridine (6) or 5-amino-2-methoxy-6-methylpyridine (8) was constructed in the presence of the same protein concentration used for the assay of that enzyme.

[6] = tested on: amidases, microsomes from High Five cells; assay: Specific activity, microsomes from High Five cells; settings: pH 8.0, 37° C.; NM = not measurable at the same protein concentration as other substrates
Experimental: Preparation of recombinant human FAAH. Transgenic expression of the human FAAH in a baculovirus system was performed by following the method described in Nishi et al., Arch. […] The cDNA encoding human FAAH (GenBank Accession No. NM—001441) was amplified by PCR using a human liver cDNA library (Invitrogen; Carlsbad, Calif.) as a template. The primer pair was 5′-[sequence]-3′ and 5′-[sequence]-3′. BglII and EcoRI endonuclease sites (underlined) were incorporated just upstream of the start codon and downstream of the stop codon of the coding sequence of FAAH, respectively. The PCR products were cloned into a pCR2.1 vector (Invitrogen) and the nucleotide sequence was verified by DNA sequencing. The cDNA fragments were then excised and directionally ligated to the BglII and EcoRI sites of the baculovirus transfer vector pAcUW21 (Lopez-Ferber et al., Baculovirus transfer vectors, in “Baculovirus Expression Protocols,” Richardson (Ed.), pp 25-63, Humana Press, Totowa, N.J., 1995). Recombinant baculoviruses harboring the human FAAH gene, Ac-hFAAH, were generated by co-transfection of Spodoptera frugiperda-derived Sf21 cells with the recombinant transfer vector plasmid and Bsu36I-cleaved BacPAK6 viral DNA (Clontech Laboratories; Mountain View, Calif.) as described in O'Reilly et al., Baculovirus Expression Vectors: A Laboratory Manual, Oxford University Press, New York, 1992. Trichoplusia ni-derived High Five cells (1×10^6 cells/ml) were inoculated with a high titer of Ac-hFAAH. At 72 hours post-infection, the infected cells were harvested by centrifugation at 2,000×g for 20 min at 4° C. and suspended in 50 mM Tris-HCl (pH 8.0) containing 150 mM NaCl, 1 mM EDTA, 1 μM pepstatin, 100 μM leupeptin, and 0.1 mg/ml aprotinin. The cell suspension was then homogenized using a Polytron homogenizer and centrifuged at 10,000×g for 20 min at 4° C. […]
Comparison of the lowest detection limits of protein concentration of FAAH toward colorimetric and fluorescent substrates. […] The lowest detection limits of microsomal fatty acid amide hydrolase (FAAH) by substrates were determined by the fact that the signal at 10 min after kinetic measurements are equal to or over three times the noise or basal line at 0 min. Colorimetric substrate (16) assays were performed in clear 96-well microtititer plates using an absorbance wavelength at 382 nm. The fluorescent substrates containing 5-amino-2-methoxypyridine (e.g., 10, 13) were measured at an excitation wavelength (302 nm), emission wavelength (396 nm), and auto cutoff wavelength (325 nm). Similarly, the fluorescent substrates containing 5-amino-2-methoxy-6-methylpyridine (e.g., 11, 14, and 17) were measured at an excitation wavelength (304 nm), emission wavelength (392 nm), and an auto cutoff wavelength of 325 nm. […]

[7] = Molar extinction coefficient of fluorescent reporters; assay type: physicochemical; settings: H2O containing 1% ethanol, 290 nm, 30° C., 10-50 μM
Experimental: Molar extinction coefficient. According to Beer's law, Aλ=ε*C*L, where Aλ is the absorbance at wavelength (λ nm); ε is called the molar extinction coefficient; L is the width of the sample cuvette; and C is the concentration of the solute. In this example, a series of concentrations falling between 10 and 50 μM (final concentration) for each fluorescent reporter was used for determination of the molar extinction coefficient. Assays were performed in a quartz cuvette (1 cm optical passage). 10 μl of a stock solution of a reporter in ethanol (1, 2, 3, 4, or 5 mM) was added to 990 μl H2O. The resulting mixture was degassed by sonication with ultrasonic cleaner Model 750 (VWR International; Wester, Pa.) for 10 seconds at a power level of 9. Measurements were performed with a Spectra Max M2 spectrophotometer (Molecular Devices; Sunnyvale, Calif.) at a wavelength of 290 nm. A slope (or extinction coefficient) was obtained by using an average absorbance of triplicate samples.

[8] = Maximal excitation and emission wavelengths; assay type: physicochemical; settings: 50 μM in 0.1 M phosphate buffer, 30° C.; SD ±2 nm
Experimental: Maximal excitation and emission wavelengths. A stock solution in ethanol of each compound (10 μl, 5 mM) was added to 990 μl of sodium phosphate buffer (0.1 M, pH 8.0, final substrate concentration 50 μM) in a 1-cm quartz cuvette. The quartz cuvette was scanned from 200 to 500 nm for absorption spectra with a Spectra Max M2 spectrophotometer. Maximal excitation and emission wavelengths were obtained from scanning from 250 to 600 nm and 360 to 600 nm by a 2 nm interval at 30° C., respectively.

[9] = 3-aminopyridine in water, from Weisstuch et al.; cited from earlier work
[10] = cited from earlier work; for ØF, fluorescence quantum yield: in water, literature value
[11] = tested on: FAAH; assay: FAAH kinetic data of literature substrates; assay type: biochemical; settings: Vmax/Km of substrate over that of oleamide (5.5 × 10^−2)
[12] = tested on: FAAH; settings: from Ramarao et al. (AAMCA), De Bank et al. (oleamide); cited from earlier work

SMILES: CCCCCCCC(=O)Nc1ccc(OC)nc1C [Compound 14, N-(6-methoxy-2-methylpyridin-3-yl) octanamide]
- aqueous solubility compared with coumarin substrate (15) [1]: much higher solubility
- base line, Average ([2]; 0 min, protein 0.11 (13), 0.67 (14), 100 (15), 0.5 (17) μg/well, 200 μM (13),(14), 25 μM (15), 50 μM (17)): 194 RFU
- signal, Average ([2]; 10 min, protein 0.11 (13), 0.67 (14), 100 (15), 0.5 (17) μg/well, 200 μM (13),(14), 25 μM (15), 50 μM (17)): 728* RFU
- Protein, lowest detection limit of microsomal FAAH (signal at 10 min ≥ three times base line) ([2]; pH 8.0, 37° C., 200 μM (13), (14), 50 μM (17)): 0.67 μg/200 μ′
- lowest detection limit of protein ([2]; signal at 10 min equal to three times base line): 3.3 μg protein/ml
- enhancement of activity, microsomes from FAAH-expressing cells compared with High Five cells [3]: 31 times
- Specific activity, Microsomes from FAAH cells ([3]; pH 8.0, 37° C., NM = not measurable at the same protein concentration as other substrates): 19.0 ± 0.5 nmol/min/mg protein
- Specific activity, Human liver S9 [4]: 0.42 ± 0.01 nmol/min/mg protein
- preference of human liver microsomes for substrate (14) over (13) ([5]; Table 4): at least 15 times
- Specific activity, Human liver microsomes [5]: 6.90 ± 0.25 nmol/min/mg protein
- melting point: 67.4 to 68.2 °C
- Specific activity, Microsomes from High Five cells [6]: 591 ± 18.4 pmol/min/mg protein

SMILES: Nc1cccnc1 [Compound 1, 3-aminopyridine]
- εmax, molar extinction coefficient [7]: 2890 M⁻¹ cm⁻¹
- Em, maximal emission wavelength [8]: 378 nm
- Ex, maximal excitation wavelength [8]: 286 nm
- εmax, molar extinction coefficient [9]: 2800 M⁻¹ cm⁻¹
- quantum yield ([10]; in 0.1 NH2SO4, Rusakowicz et al.): 1.07
- quantum yield ([10]; in 1 N NaOH, Rusakowicz et al.): 0.03
- ØF, fluorescence quantum yield [10]: 0.32^d
- ØF, fluorescence quantum yield ([10]; listed as 3-aminopyridine): 0.32

- Specific activity, Human liver S9 [4]: 0.18 ± 0.02 nmol/min/mg protein
- Specific activity, Human liver microsomes [5]: 0.66 ± 0.06 nmol/min/mg protein
- melting point: 109.3 to 111.4 °C
SMILES: CC(=O)Nc1ccc2c(C(F)(F)F)cc(=O)oc2c1 [Compound 12, N-(4-(trifluoromethyl)-2-oxo-2H-chromen-7-yl) acetamide]

SMILES: CCCCCC=CCC=CCC=CCC=CCCCC(=O)Nc1ccc2c(C)cc(=O)oc2c1 [AAMCA, arachidonyl 7-amino-4-methylcoumarin amide]
- Selectivity ratio [11]: 2.2
- Km [12]: 0.48 µM
- Vmax [12]: 0.058 nmol/min/mg

SMILES: CCCCCCCC/C=C\CCCCCCCC(N)=O [Oleamide, oleamide]
- Selectivity ratio [11]: 1.0
- Km [12]: 104 µM
- Vmax [12]: 5.7 nmol/min/mg
